In US20070072897A1, “Phenylaminopropanol derivatives and methods of their use” (Wyeth, priority 2005, published 2007):
pEC50, pIC50: −log10 of the molar value. Counter-ions that a name gives are not always drawn.

How the values were obtained:
human hNET = molecular target: T1, human hNET (Homo sapiens, UniProt P23975); assay: Norepinephrine (NE) uptake assay in MDCK-Net6 cells; type: cell-based; conditions: [3H]NE uptake; for pEC50: MDCK-Net6 cells stably transfected with hNET; for inhibition at 1 µM: MDCK-Net6 cells, read-out: hNET Percentage inhibition at 1 μM
T1 construct: expressed in transfected cells; host or cells: MDCK (MDCK-Net6)

human 5-HT2A receptor = molecular target: T2, human 5-HT2A receptor (Homo sapiens, UniProt P28223); assay: 5-HT2A FLIPR assay (calcium response to DOI) in CHO cells; type: cell-based; conditions: for pIC50: antagonist inhibition of 3 nM DOI stimulation, CHO cells, FLIPR; for inhibition at 1 µM: CHO, read-out: 5-HT2A Percentage inhibition at 1 μM
T2 construct: expressed in transfected cells; host or cells: CHO
Experimental: Cells are washed with PBS without Ca^2+ and 3 mL Trypsin is added to dissociate cells. After 3 minute incubation, 7 mL Trypsin Neutralizing Solution is added. Cells are then aspirated from flask and mixed in a 50 mL conical tube. 10 μL sample is used to count cells on a hemacytometer. […] Two 96-well drug plates are prepared for each cell plate. Plate 1 will contain compounds to be tested and plate 2 will contain the agonist DOI (3 nM) to activate a calcium response. Specific details of compound preparation are listed below. […] Outside wells are not used due to an edge effect seen in these cells. The reference compounds DOI and 5-HT are used as standard 5HT agonists. […] Standards for plate one are Vehicle, 1 μM DOI, and 3 nM MDL. […] On the day of the assay, test compound solutions of appropriate concentrations are diluted in assay buffer as described for single concentration testing. This procedure is followed to ensure that the solvent concentration is consistent across dilutions. The typical concentration testing range of compounds is 10^−10—10^−5 M in half log or full log increments. A 10 μM DOI stock is diluted to 60 nM and added to the respective wells. The pipeting station of the FLIPR will make an additional 20-fold dilution for a final concentration of 3 nM. Standards for this plate include Vehicle and 3 nM DOI. Contents of dye vial (Molecular Devices #R8090) are dissolved in 100 mL of 1×HBSS supplemented with 20 mM HEPES. Aliquots can be frozen at −20° C. for up to one week for future use. On the day of assay, dye is thawed and diluted to half concentration. […] Cells are allowed to adhere for 24 hours in 96-well plates. […] Cell, compound and DOI plates are loaded into the FLIPR machine. The baseline fluorescence level is read once every second for 1 minute. Compound (10 μL) is transferred from the compound plate to the cells and the fluorescence level recorded every 6 seconds for 2 minutes to determine any agonist activity. Baseline fluorescence is recorded again every second for 10 seconds. For antagonist determination, 10 μL of 3 nM DOI is transferred from the DOI plate to the cells and the fluorescence level recorded every 6 seconds for 5 minutes. The pipetting unit of the FLIPR machine completes all transfers. […] The data are log transformed prior to analysis.

T2 sequence (P28223 whole entry): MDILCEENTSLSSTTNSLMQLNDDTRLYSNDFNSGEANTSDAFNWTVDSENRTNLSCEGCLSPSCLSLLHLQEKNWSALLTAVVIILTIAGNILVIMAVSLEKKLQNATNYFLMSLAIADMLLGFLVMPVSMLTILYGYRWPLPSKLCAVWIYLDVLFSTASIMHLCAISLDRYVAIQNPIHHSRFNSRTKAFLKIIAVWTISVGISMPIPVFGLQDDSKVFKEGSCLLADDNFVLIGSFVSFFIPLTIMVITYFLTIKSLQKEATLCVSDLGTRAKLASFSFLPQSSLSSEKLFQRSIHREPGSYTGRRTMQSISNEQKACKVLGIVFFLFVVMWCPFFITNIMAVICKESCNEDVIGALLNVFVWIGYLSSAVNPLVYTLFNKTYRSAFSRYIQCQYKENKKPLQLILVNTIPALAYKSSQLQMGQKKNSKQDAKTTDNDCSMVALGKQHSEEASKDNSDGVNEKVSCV
T1 sequence (P23975 whole entry): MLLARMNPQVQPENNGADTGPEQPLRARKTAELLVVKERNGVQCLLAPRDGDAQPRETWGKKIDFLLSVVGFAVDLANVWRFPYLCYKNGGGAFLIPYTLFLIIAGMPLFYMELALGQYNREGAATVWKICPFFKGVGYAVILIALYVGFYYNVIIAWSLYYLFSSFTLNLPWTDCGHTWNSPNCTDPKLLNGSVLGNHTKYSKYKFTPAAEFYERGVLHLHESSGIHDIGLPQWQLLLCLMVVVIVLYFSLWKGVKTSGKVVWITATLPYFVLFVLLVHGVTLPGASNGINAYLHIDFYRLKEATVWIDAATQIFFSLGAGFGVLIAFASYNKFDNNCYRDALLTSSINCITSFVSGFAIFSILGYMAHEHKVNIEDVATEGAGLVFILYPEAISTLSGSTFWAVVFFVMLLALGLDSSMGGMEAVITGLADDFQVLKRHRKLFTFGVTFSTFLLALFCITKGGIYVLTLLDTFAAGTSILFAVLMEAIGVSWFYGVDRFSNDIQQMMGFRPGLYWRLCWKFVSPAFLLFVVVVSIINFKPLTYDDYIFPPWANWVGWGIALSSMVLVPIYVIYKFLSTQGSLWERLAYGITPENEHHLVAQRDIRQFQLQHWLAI

Row | pIC50 (human 5-HT2A receptor) | Compound | pEC50 (human hNET) | inhibition at 1 µM (human 5-HT2A receptor) | inhibition at 1 µM (human hNET)
1 | 6.69 | CNC[C@@H](O)[C@H](c1ccccc1)N1C(=O)C2(CCCCC2)c2cccc(Cl)c21 [Example 31, 7′-Chloro-1′-[(1S,2R)-2-hydroxy-3-(methylamino)-1-phenylpropyl]spiro[cyclohexane-1,3′-indol]-2′(1′H)-one hydrochloride] | 7.49 | – | –
2 | – | CNC[C@@H](O)[C@H](c1cccc(F)c1)N1C(=O)C2(CCCCC2)c2ccc(F)cc21 [Example 32, 6′-fluoro-1′-[(1S,2R)-1-(3-fluorophenyl)-2-hydroxy-3-(methylamino)propyl]spiro[cyclohexane-1,3′-indol]-2′(1′H)-one hydrochloride] | 7.37 | 95% | –
3 | – | CNC[C@@H](O)[C@H](c1ccccc1)N1CC2(CCCCC2)c2ccccc21 [Example 33, (1S,2R)-3-(methylamino)-1-phenyl-1-spiro[cyclohexane-1,3′-indol]-1′(2′H)-ylpropan-2-ol hydrochloride] | 7.54 | 13% | –
4 | – | CNC[C@@H](O)[C@H](c1ccccc1)n1ccc2cc(NC(=O)c3ccc(C)c(Cl)c3)ccc21 [Example 71, 3-chloro-N-{1-[(1S,2R)-2-hydroxy-3-(methylamino)-1-phenylpropyl]-1H-indol-5-yl}-4-methylbenzamide hydrochloride] | 7.04 | 44% | –
5 | – | CNC[C@@H](O)[C@H](c1ccccc1)N1CCc2cc(NC(=O)c3cccc(Cl)c3)ccc21 [Example 72, 3-Chloro-N-{1-[(1S,2R)-2-hydroxy-3-(methylamino)-1-phenylpropyl]-2,3-dihydro-1H-indol-5-yl}benzamide hydrochloride] | 7.02 | 60% | –
6 | 6.20 | CNC[C@@H](O)[C@H](c1ccccc1)n1ccc2cc(NC(=O)c3cccc(Cl)c3)ccc21 [Example 73, 3-Chloro-N-{1-[(1S,2R)-2-hydroxy-3-(methylamino)-1-phenylpropyl]-1H-indol-5-yl}benzamide hydrochloride] | 7.04 | – | –
7 | – | CNC[C@@H](O)[C@H](c1ccccc1)N1CCc2cc(NC(=O)c3ccccc3)ccc21 [Example 74, N-{1-[(1S,2R)-2-Hydroxy-3-(methylamino)-1-phenylpropyl]-2,3-dihydro-1H-indol-5-yl}benzamide hydrochloride] | 6.44 | 24% | –
8 | – | CNC[C@@H](O)[C@H](c1ccccc1)n1ccc2cc(NC(=O)c3ccccc3)ccc21 [Example 75, N-{1-[(1S,2R)-2-Hydroxy-3-(methylamino)-1-phenylpropyl]-1H-indol-5-yl}benzamide hydrochloride] | 6.52 | 34% | –
9 | – | CNC[C@@H](O)[C@H](c1ccccc1)N1CCc2cc(NC(=O)C3CCCCC3)ccc21 [Example 76, N-{1-[(1S,2R)-2-Hydroxy-3-(methylamino)-1-phenylpropyl]-2,3-dihydro-1H-indol-5-yl}cyclohexanecarboxamide hydrochloride] | – | 45% | 54%
10 | – | CNC[C@@H](O)[C@H](c1ccccc1)n1ccc2cc(NC(=O)C3CCCCC3)ccc21 [Example 77, N-{1-[(1S,2R)-2-Hydroxy-3-(methylamino)-1-phenylpropyl]-1H-indol-5-yl}cyclohexanecarboxamide hydrochloride] | – | 51% | 60%
11 | 6.16 | CNC[C@@H](O)[C@H](c1ccccc1)N1CCc2cc(C(=O)Nc3cccc(Cl)c3)ccc21 [Example 78, N-(3-Chlorophenyl)-1-[(1S,2R)-2-hydroxy-3-(methylamino)-1-phenylpropyl]indoline-5-carboxamide hydrochloride] | 6.44 | – | –
12 | 7.08 | CNC[C@@H](O)[C@H](c1ccccc1)n1ccc2cc(C(=O)Nc3cccc(Cl)c3)ccc21 [Example 79, N-(3-Chlorophenyl)-1-[(1S,2R)-2-hydroxy-3-(methylamino)-1-phenylpropyl]-1H-indole-5-carboxamide hydrochloride] | 6.48 | – | –
13 | – | CNC[C@@H](O)[C@H](c1ccccc1)n1ccc2ccc(Oc3ccccc3)cc21 [Example 80, (1S,2R)-3-(methylamino)-1-(6-phenoxy-1H-indol-1-yl)-1-phenylpropan-2-ol hydrochloride] | – | 32% | 12%
14 | 6.43 | CNC[C@@H](O)[C@H](c1ccccc1)n1ccc2cccc(Oc3ccccc3)c21 [Example 81, (1S,2R)-3-(methylamino)-1-(7-phenoxy-1H-indol-1-yl)-1-phenylpropan-2-ol hydrochloride] | 5.99 | – | –
15 | 6.10 | NC[C@@H](O)[C@H](c1ccccc1)n1ccc2cc(OCc3ccccc3)ccc21 [Example 82, (1S,2R)-3-amino-1-[5-(benzyloxy)-1H-indol-1H-yl]-1-phenylpropan-2-ol hydrochloride] | 6.55 | – | –
16 | 6.42 | CCNC[C@@H](O)[C@H](c1ccccc1)n1ccc2cc(OCc3ccccc3)ccc21 [Example 83, (1S,2R)-1-[5-(benzyloxy)-1H-indol-1-yl]-3-(ethylamino)-1-phenylpropan-2-ol hydrochloride] | – | – | 43%
17 | – | CCCNC[C@@H](O)[C@H](c1ccccc1)n1ccc2cc(OCc3ccccc3)ccc21 [Example 84, (1S,2R)-1-[5-(benzyloxy)-1H-indol-1-yl]-1-phenyl-3-(propylamino)propan-2-ol hydrochloride] | – | 50% | 11%
18 | – | CC(C)NC[C@@H](O)[C@H](c1ccccc1)n1ccc2cc(OCc3ccccc3)ccc21 [Example 85, (1S,2R)-1-[5-(benzyloxy)-1H-indol-1-yl]-3-(isopropylamino)-1-phenylpropan-2-ol hydrochloride] | – | 32% | 4%
19 | 6.58 | CN(C)C[C@@H](O)[C@H](c1ccccc1)n1ccc2cc(OCc3ccccc3)ccc21 [Example 86, (1S,2R)-1-[5-(benzyloxy)-1H-indol-1-yl]-3-(dimethylamino)-1-phenylpropan-2-ol hydrochloride] | – | – | 22%
20 | 5.95 | CCN(C)C[C@@H](O)[C@H](c1ccccc1)n1ccc2cc(OCc3ccccc3)ccc21 [Example 87, (1S,2R)-1-[5-(benzyloxy)-1H-indol-1-yl]-3-[ethyl(methyl)amino]-1-phenylpropan-2-ol hydrochloride] | – | – | 16%
21 | – | CCN(CC)C[C@@H](O)[C@H](c1ccccc1)n1ccc2cc(OCc3ccccc3)ccc21 [Example 88, (1S,2R)-1-[5-(benzyloxy)-1H-indol-1-yl]-3-(diethylamino)-1-phenylpropan-2-ol hydrochloride] | – | 33% | 21%
22 | – | O[C@H](CN1CCCC1)[C@H](c1ccccc1)n1ccc2cc(OCc3ccccc3)ccc21 [Example 89, (1S,2R)-1-[5-(benzyloxy)-1H-indol-1-yl]-1-phenyl-3-pyrrolidin-1-ylpropan-2-ol hydrochloride] | – | 32% | 14%
23 | – | O[C@H](CN1CCCCC1)[C@H](c1ccccc1)n1ccc2cc(OCc3ccccc3)ccc21 [Example 90, (1S,2R)-1-[5-(benzyloxy)-1H-indol-1-yl]-1-phenyl-3-piperidin-1-ylpropan-2-ol hydrochloride] | – | 25% | 12%
